In brackets after ≈: the same amount, converted by molar mass.
Assays:
Klebsiella aerogenes = assay: Antibacterial activity against Klebsiella aerogenes 1522E; format: functional
Escherichia coli [1] = assay: Antibacterial activity against Escherichia coli DC2; format: functional
Staphylococcus aureus [2] = assay: Antibacterial activity against Staphylococcus aureus SG511; format: functional
Salmonella typhimurium = assay: Antibacterial activity against Salmonella Typhimurium; format: functional, Salmonella enterica subsp. enterica serovar Typhimurium; conditions: Salmonella enterica
Enterobacter cloacae [3] = assay: Antibacterial activity against Enterobactor cloacae 1321E; format: functional
Escherichia coli [4] = assay: Antibacterial activity against Escherichia coli TEM; format: functional
Staphylococcus aureus [5] = assay: Antibacterial activity against Staphylococcus aureus 285; format: functional
Pseudomonas aeruginosa [6] = assay: Antibacterial activity against Pseudomonas aeruginosa 9027; format: functional
Streptococcus pyogenes [7] = assay: Antibacterial activity against Streptococcus pyogenes 77A; format: functional
Streptococcus pyogenes [8] = assay: Antibacterial activity against Streptococcus pyogenes 308A; format: functional
[9] = Antibacterial activity against Salmonella oranienberg; format: functional, Salmonella enterica subsp. enterica serovar Oranienburg; conditions: Salmonella enterica
Enterococcus faecium = assay: Antibacterial activity against Streptococcus faecium 77A; format: functional
Enterobacter cloacae [10] = assay: Antibacterial activity against Enterobacter cloacae 417; format: functional
Staphylococcus aureus [11] = assay: Antibacterial activity against Staphylococcus aureus 209P; format: functional
[12] = Antibacterial activity against Salmonella give; format: functional, Salmonella enterica subsp. enterica serovar Give; conditions: Salmonella enterica
Salmonella typhi = assay: Antibacterial activity against Salmonella typhi; format: functional, Salmonella enterica subsp. enterica serovar Typhi; conditions: Salmonella enterica
Proteus vulgaris = assay: Antibacterial activity against Proteus vulgaris 868; format: functional
Klebsiella pneumoniae = assay: Antibacterial activity against Klebsiella pneumonise 477; format: functional
Escherichia coli [13] = assay: Antibacterial activity against Escherichia coli 0114; format: functional
Salmonella paratyphi = assay: Antibacterial activity against Salmonella paratyphi A; format: functional, Salmonella enterica subsp. enterica serovar Paratyphi A; conditions: Salmonella enterica
Pasteurella multocida = assay: Antibacterial activity against Pasteurella multocida; format: functional
Staphylococcus aureus [14] = assay: Antibacterial activity against Staphylococcus aureus 503; format: functional
Escherichia coli [15] = assay: Antibacterial activity against Escherichia coli 086; format: functional
[16] = tested on: Corynebacterium diphtheriae; assay: Antibacterial activity against Corynebacterium diphtheriae; format: functional
Pseudomonas aeruginosa [17] = assay: Antibacterial activity against Pseudomonas aeruginosa 880/2; format: functional
Proteus mirabilis [18] = assay: Antibacterial activity against Proteus mirabilis 112/3; format: functional
Streptococcus agalactiae = assay: Antibacterial activity against Streptococcus agalactiae B; format: functional
Escherichia coli [19] = assay: Antibacterial activity against Escherichia coil V6311/65; format: functional
Staphylococcus aureus [20] = assay: Antibacterial activity against Staphylococcus aureus giorgio; format: functional
Bacillus subtilis = assay: Antibacterial activity against Bacillus subtilts ATCC 6633; format: functional
Pseudomonas aeruginosa [21] = assay: Antibacterial activity against Pseudomonas aeruginosa 77/2; format: functional
Priestia megaterium = assay: Antibacterial activity against Bacillus megaterium; format: functional
Serratia marcescens [22] = assay: Antibacterial activity against Serratia marcescens 14273; format: functional
Enterobacter cloacae [23] = assay: Antibacterial activity against Enterobacter cloacae; format: functional
Pseudomonas aeruginosa [24] = assay: Antibacterial activity against Pseudomonas aeruginosa 110/2; format: functional
Providencia rettgeri [25] = assay: Antibacterial activity against Proteus rettgeri 937; format: functional
Serratia marcescens [26] = assay: Antibacterial activity against Serratia marcescens 370; format: functional
Trueperella pyogenes = assay: Antibacterial activity against Corynebacterium pyogenes; format: functional
Enterococcus durans = assay: Antibacterial activity against Streptococcus durans D; format: functional
Escherichia coli [27] = assay: Antibacterial activity against Escherichia coil 1507; format: functional
Salmonella = assay: Antibacterial activity against Salmonella orion; format: functional
Micrococcus luteus = assay: Antibacterial activity against Micrococcus luteus ATCC 9341; format: functional
Serratia marcescens [28] = assay: Antibacterial activity against Serratia marcescens 6093; format: functional
Burkholderia cepacia = assay: Antibacterial activity against Pseudomonas cepacia; format: functional
Proteus mirabilis [29] = assay: Antibacterial activity against Proteus mirabilis 174/3; format: functional
Escherichia coli [30] = assay: Antibacterial activity against Escherichia coli 0126; format: functional
Providencia rettgeri [31] = assay: Antibacterial activity against Proteus rettgeri 936; format: functional

## CCCNS(=O)(=O)NC/C(=N\OC)[C@@H]1C[C@H](SC2=C(C(=O)O)N3C(=O)[C@H]([C@@H](C)O)[C@H]3[C@H]2C)CN1
Klebsiella aerogenes
  MIC: 0.195 µg/mL (≈ 0.375 µM)
Escherichia coli [1]
  MIC: 0.098 µg/mL (≈ 0.189 µM)
Staphylococcus aureus [2]
  MIC: 0.195 µg/mL (≈ 0.375 µM)
Salmonella typhimurium
  MIC: 0.098 µg/mL (≈ 0.189 µM)
Enterobacter cloacae [3]
  MIC: 0.195 µg/mL (≈ 0.375 µM)
Escherichia coli [4]
  MIC: 0.195 µg/mL (≈ 0.375 µM)
Staphylococcus aureus [5]
  MIC: 0.195 µg/mL (≈ 0.375 µM)
Pseudomonas aeruginosa [6]
  MIC: 12.5 µg/mL (≈ 24.1 µM)
Streptococcus pyogenes [7]
  MIC: 0.025 µg/mL (≈ 0.0481 µM)
Streptococcus pyogenes [8]
  MIC: 0.049 µg/mL (≈ 0.0943 µM)

## CC(O)[C@H]1C(=O)N2C(C(=O)O)=C(SCCNC=N)C[C@H]12 (single isomer, unassigned) [IMIPENEM ANHYDROUS]
Klebsiella aerogenes
  MIC: 0.098 µg/mL (≈ 0.327 µM)
[9]
  MIC: 0.4 µg/mL (≈ 1.34 µM)
Enterococcus faecium
  MIC: < 0.01 µg/mL
Enterobacter cloacae [10]
  MIC: 0.1 µg/mL (≈ 0.334 µM)
Staphylococcus aureus [11]
  MIC: 0.01 µg/mL (≈ 0.0334 µM)
Escherichia coli [1]
  MIC: 0.391 µg/mL (≈ 1.31 µM)
[12]
  MIC: 0.2 µg/mL (≈ 0.668 µM)
Salmonella typhi
  MIC: 0.05 µg/mL (≈ 0.167 µM)
Proteus vulgaris
  MIC: 0.1 µg/mL (≈ 0.334 µM)
Klebsiella pneumoniae
  MIC: 0.2 µg/mL (≈ 0.668 µM)
Escherichia coli [13]
  MIC: 0.2 µg/mL (≈ 0.668 µM)
Salmonella paratyphi
  MIC: 0.1 µg/mL (≈ 0.334 µM)
Pasteurella multocida
  MIC: < 0.01 µg/mL
Staphylococcus aureus [14]
  MIC: < 0.01 µg/mL
Escherichia coli [15]
  MIC: 0.2 µg/mL (≈ 0.668 µM)
[16]
  MIC: 0.01 µg/mL (≈ 0.0334 µM)
Pseudomonas aeruginosa [17]
  MIC: 0.8 µg/mL (≈ 2.67 µM)
Proteus mirabilis [18]
  MIC: 0.2 µg/mL (≈ 0.668 µM)
Streptococcus agalactiae
  MIC: 0.01 µg/mL (≈ 0.0334 µM)
Staphylococcus aureus [2]
  MIC: 0.098 µg/mL (≈ 0.327 µM)
Escherichia coli [19]
  MIC: 0.05 µg/mL (≈ 0.167 µM)
Staphylococcus aureus [20]
  MIC: 0.01 µg/mL (≈ 0.0334 µM)
Bacillus subtilis
  MIC: 0.03 µg/mL (≈ 0.1 µM)
Salmonella typhimurium
  MIC: 0.781 µg/mL (≈ 2.61 µM)
Enterobacter cloacae [3]
  MIC: 0.098 µg/mL (≈ 0.327 µM)
Pseudomonas aeruginosa [21]
  MIC: 0.8 µg/mL (≈ 2.67 µM)
Priestia megaterium
  MIC: 0.03 µg/mL (≈ 0.1 µM)
Serratia marcescens [22]
  MIC: 0.8 µg/mL (≈ 2.67 µM)
Escherichia coli [4]
  MIC: 0.195 µg/mL (≈ 0.651 µM)
Staphylococcus aureus [5]
  MIC: 0.013 µg/mL (≈ 0.0434 µM)
Enterobacter cloacae [23]
  MIC: 0.1 µg/mL (≈ 0.334 µM)
Pseudomonas aeruginosa [24]
  MIC: 0.8 µg/mL (≈ 2.67 µM)
Providencia rettgeri [25]
  MIC: 0.2 µg/mL (≈ 0.668 µM)
Pseudomonas aeruginosa [6]
  MIC: 0.781 µg/mL (≈ 2.61 µM)
Serratia marcescens [26]
  MIC: 0.2 µg/mL (≈ 0.668 µM)
Trueperella pyogenes
  MIC: < 0.01 µg/mL
Enterococcus durans
  MIC: 0.1 µg/mL (≈ 0.334 µM)
Escherichia coli [27]
  MIC: 0.1 µg/mL (≈ 0.334 µM)
Salmonella
  MIC: 0.2 µg/mL (≈ 0.668 µM)
Micrococcus luteus
  MIC: 0.01 µg/mL (≈ 0.0334 µM)
Serratia marcescens [28]
  MIC: 0.4 µg/mL (≈ 1.34 µM)
Burkholderia cepacia
  MIC: 0.8 µg/mL (≈ 2.67 µM)
Proteus mirabilis [29]
  MIC: 0.1 µg/mL (≈ 0.334 µM)
Escherichia coli [30]
  MIC: 0.1 µg/mL (≈ 0.334 µM)
Providencia rettgeri [31]
  MIC: 0.2 µg/mL (≈ 0.668 µM)
Streptococcus pyogenes [7]
  MIC: 0.013 µg/mL (≈ 0.0434 µM)
Streptococcus pyogenes [8]
  MIC: < 0.01 µg/mL

## C[C@@H](O)[C@H]1C(=O)N2C(C(=O)O)=C(S[C@@H]3CN[C@H](C(=O)N(C)C)C3)[C@H](C)[C@H]12 [MEROPENEM]
Klebsiella aerogenes
  MIC: 0.049 µg/mL (≈ 0.128 µM)
[9]
  MIC: 0.05 µg/mL (≈ 0.13 µM)
Enterococcus faecium
  MIC: 0.01 µg/mL (≈ 0.0261 µM)
Enterobacter cloacae [10]
  MIC: 0.01 µg/mL (≈ 0.0261 µM)
Staphylococcus aureus [11]
  MIC: 0.1 µg/mL (≈ 0.261 µM)
Escherichia coli [1]
  MIC: 0.025 µg/mL (≈ 0.0652 µM)
[12]
  MIC: 0.03 µg/mL (≈ 0.0782 µM)
Salmonella typhi
  MIC: 0.01 µg/mL (≈ 0.0261 µM)
Proteus vulgaris
  MIC: 0.1 µg/mL (≈ 0.261 µM)
Klebsiella pneumoniae
  MIC: 0.05 µg/mL (≈ 0.13 µM)
Escherichia coli [13]
  MIC: 0.03 µg/mL (≈ 0.0782 µM)
Pasteurella multocida
  MIC: 0.05 µg/mL (≈ 0.13 µM)
Staphylococcus aureus [14]
  MIC: 0.05 µg/mL (≈ 0.13 µM)
Escherichia coli [15]
  MIC: 0.05 µg/mL (≈ 0.13 µM)
[16]
  MIC: 0.05 µg/mL (≈ 0.13 µM)
Pseudomonas aeruginosa [17]
  MIC: 0.2 µg/mL (≈ 0.522 µM)
Proteus mirabilis [18]
  MIC: 0.1 µg/mL (≈ 0.261 µM)
Streptococcus agalactiae
  MIC: 0.05 µg/mL (≈ 0.13 µM)
Staphylococcus aureus [2]
  MIC: 0.098 µg/mL (≈ 0.256 µM)
Escherichia coli [19]
  MIC: 0.01 µg/mL (≈ 0.0261 µM)
Staphylococcus aureus [20]
  MIC: 0.1 µg/mL (≈ 0.261 µM)
Bacillus subtilis
  MIC: 0.05 µg/mL (≈ 0.13 µM)
Salmonella typhimurium
  MIC: 0.025 µg/mL (≈ 0.0652 µM)
Enterobacter cloacae [3]
  MIC: 0.025 µg/mL (≈ 0.0652 µM)
Pseudomonas aeruginosa [21]
  MIC: 0.8 µg/mL (≈ 2.09 µM)
Priestia megaterium
  MIC: 0.05 µg/mL (≈ 0.13 µM)
Serratia marcescens [22]
  MIC: 0.2 µg/mL (≈ 0.522 µM)
Escherichia coli [4]
  MIC: 0.025 µg/mL (≈ 0.0652 µM)
Staphylococcus aureus [5]
  MIC: 0.098 µg/mL (≈ 0.256 µM)
Enterobacter cloacae [23]
  MIC: 0.03 µg/mL (≈ 0.0782 µM)
Pseudomonas aeruginosa [24]
  MIC: 0.4 µg/mL (≈ 1.04 µM)
Providencia rettgeri [25]
  MIC: 0.05 µg/mL (≈ 0.13 µM)
Pseudomonas aeruginosa [6]
  MIC: 0.195 µg/mL (≈ 0.509 µM)
Serratia marcescens [26]
  MIC: 0.05 µg/mL (≈ 0.13 µM)
Trueperella pyogenes
  MIC: 0.03 µg/mL (≈ 0.0782 µM)
Enterococcus durans
  MIC: 0.8 µg/mL (≈ 2.09 µM)
Escherichia coli [27]
  MIC: 0.03 µg/mL (≈ 0.0782 µM)
Salmonella
  MIC: 0.1 µg/mL (≈ 0.261 µM)
Micrococcus luteus
  MIC: 0.05 µg/mL (≈ 0.13 µM)
Serratia marcescens [28]
  MIC: 0.05 µg/mL (≈ 0.13 µM)
Burkholderia cepacia
  MIC: 0.4 µg/mL (≈ 1.04 µM)
Proteus mirabilis [29]
  MIC: 0.1 µg/mL (≈ 0.261 µM)
Escherichia coli [30]
  MIC: 0.05 µg/mL (≈ 0.13 µM)
Providencia rettgeri [31]
  MIC: 0.1 µg/mL (≈ 0.261 µM)
Streptococcus pyogenes [7]
  MIC: < 0.01 µg/mL
Streptococcus pyogenes [8]
  MIC: 0.013 µg/mL (≈ 0.0339 µM)

Source: ChEMBL document CHEMBL1143804, “Synthesis and antibacterial evaluation of 1beta-methyl-2-[5-(1-methoxyimino-2-substituted sulfonamide ethyl)pyrrolidin-3-ylthio]carbapenems and their related compounds” (2007)
